According to patent US8623325B2, “Azide modified charge sensitive channel proteins” (priority 2008, dated 2014):

Target: T1, E. coli channel protein MscL Gly22Cys (Escherichia coli, UniProt P0A742, G22C)
T1 construct: made in house
Assay: Calcein release from liposomes containing MscL Gly22Cys (self-quenching fluorescent dye)
Type: biochemical
Description: MscL-MA was reconstituted into synthetic liposomes composed of azolectin by using a detergent mediated reconstitution method. The incorporation of channels protein in lipid vesicles is describe in detail in WO2005051902 This procedure was performed in the presence of calcein, a self-quenching fluorescent dye. At high local concentrations inside the liposomes, the fluorescence of calcein is low. Release of calcein from liposomes results in dilution of the dye and consequently in a large increase in fluorescence intensity. The labelling and reconstitution was validated by using unlabeled MscL instead of MscL-MA.
The activity of azide labeled Gly22Cys MscL in the liposome was verified with triphenylphosphine (Trisodium triphenylphosphine-3,3′,3″-trisulfonate) at pH 7.2-7.5 at 37° C.
A control experiment was performed using vesicles with unlabelled Gly22Cys MscL and the channel activator MTSET, which is a charged and cysteine-reactive molecule.
MscL-MA has a closed conformation. Calcein can not leave from a vesicle via this closed MscL-MA. To these vesicles MTSET was added. Unlabelled cysteine residues, if present, will react with MTSET and introduce a charge in the channel protein resulting in the opening of the channel and release of fluorescent label. Such residual activation was not observed, showing that a quantitative MA labelling of all cysteines in MscL was obtained (FIG. 7, bottom panel).
In the experimental setting calcein-filled vesicles with MscL-MA are treated with triphenylphosphine at […].
Control experiments are performed using the same calcein filled vesicles with MscL, which is not modified with MA and wherein these unmodified vesicles are treated with triphenylphosphine.

T1 sequence (P0A742 whole entry G22C): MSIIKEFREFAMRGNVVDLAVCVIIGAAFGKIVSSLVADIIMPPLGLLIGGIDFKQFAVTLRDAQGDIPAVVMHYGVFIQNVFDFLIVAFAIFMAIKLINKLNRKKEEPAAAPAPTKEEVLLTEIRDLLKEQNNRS

Row | SMILES | calcein release after addition of MTSET (calcein-filled liposomes with unlabelled (unmodified) Gly22Cys MscL) | activation / calcein release after addition of MTSET (vesicles with azide-modified MscL (MscL-MA)) | release from MscL upon contacting with phosphine (MscL modified with compound IX, calcein filled vesicles, pH 7.4)
1 | C[N+](C)(C)CCSS(C)(=O)=O.[Br-] [MTSET] | resulted in calcein release | could not activate the modified MscL | 
2 | CS(=O)(=O)SCCOC(=O)CNC(=O)OCc1ccc(N=[N+]=[N-])cc1 [compound IX] |  |  | significant increase in release
